Experimental data as given in patent US12303505B2, “Tumor-treating pharmaceutical composition” (Eisai R&D Management Co., Ltd., priority 2017, dated 2025).
Counter-ions that a name gives are not always drawn.

What was measured:
Format in all cases: in vivo
[1] = test system: Mouse breast cancer 4T1 cells; experiment: Antitumor effect in mouse breast cancer 4T1 orthotopic transplantation model
Experimental: Mouse breast cancer 4T1 cells (ATCC) were cultured by using RPMI1640 medium (Sigma-Aldrich Co. LLC) containing 10% FBS in a 5% CO2 incubator under conditions of 37° C. When the cells became an approximately 80% confluent state, the cells were recovered by using trypsin-EDTA. A suspension was prepared by adding Hank's balanced salt solution so as to be 1.0×10^7 cells/mL. 0.1 mL of the obtained cell suspension was transplanted to the right third mammary gland fat pads of five mice ([…], Charles River Laboratories Japan, Inc.) each of a control group, an E7386 25 mg/kg alone administration group, a lenvatinib mesylate 10 mg/kg alone administration group, and a combined administration group of 25 mg/kg E7386 and 10 mg/kg lenvatinib mesylate. From 9 days after the transplantation, E7386 (25 mg/kg, b.d.s., 14 days, oral administration) and lenvatinib mesylate (10 mg/kg, q.d., 14 days, oral administration) were administered alone or in combination to the alone administration group or the combined administration group. For the administration, E7386 was dissolved in 0.1 mol/L hydrochloric acid, and lenvatinib mesylate was dissolved in 3 mmol/L hydrochloric acid. Any drug was not administered to the control group.
When the start day of administration was defined as day 1, the major axis and minor axis of tumor developed in each mouse were then measured at day 3, day 6, day 9, and day 14 by using Digimatic Caliper (Mitutoyo Corp.).
(§1) The tumor volume and the relative tumor volume (RTV) were calculated according to the following expressions. Tumor volume (mm^3)=Tumor major axis (mm)×Tumor minor axis^2 (mm^2)/2 Relative tumor volume (RTV)=Tumor volume at the measurement day/Tumor volume at the start day of administration

[2] = test system: Human hepatocellular carcinoma line SNU398 cells; experiment: Antitumor effect in human hepatocellular carcinoma line SNU398 transplantation model, nude mice
Experimental: Human hepatocellular carcinoma line SNU398 cells (ATCC) were cultured by using RPMI1640 medium (Wako Pure Chemical Industries, Ltd.) containing 10% FBS in a 5% CO2 incubator under conditions of 37° C. When the cells became an approximately 80% confluent state, the cells were recovered by using trypsin-EDTA. A suspension was prepared by adding Hank's balanced salt solution containing 50% Matrigel to the cells so as to be 5.0×10^7 cells/mL. 0.1 mL of the obtained cell suspension was subcutaneously transplanted to the sides of the bodies of eight nude mice (CAnN.Cg-Foxn1^nu/CrlCrlj, Charles River Laboratories Japan, Inc.) each of a control group, an E7386 50 mg/kg alone administration group, a lenvatinib mesylate 10 mg/kg alone administration group, and a combined administration group of 12.5, 25 or 50 mg/kg E7386 and 10 mg/kg lenvatinib mesylate. From 9 days after the transplantation, E7386 (12.5, 25, or 50 mg/kg, b.d.s., 14 days, oral administration) and lenvatinib mesylate (10 mg/kg, q.d., 14 days, oral administration) were administered alone or in combination to the alone administration group or the combined administration group. For the administration, E7386 was dissolved in 0.1 mol/L hydrochloric acid, and lenvatinib mesylate was dissolved in 3 mmol/L hydrochloric acid. Any drug was not administered to the control group.
When the start day of administration was defined as day 1, the major axis and minor axis of tumor developed in each mouse were then measured at day 6, day 9, day 12, and day 15 by using Digimatic Caliper (Mitutoyo Corp.).
as §1

[3] = test system: Human breast cancer MDA-MB-231 cells; experiment: Antitumor effect in human breast cancer MDA-MB-231 transplantation model, nude mice
Experimental: Human breast cancer MDA-MB-231 cells (ATCC) were cultured by using RPMI1640 medium (Sigma-Aldrich Co. LLC) containing 10% FBS in a 5% CO2 incubator under conditions of 37° C. When the cells became an approximately 80% confluent state, the cells were recovered by using trypsin-EDTA. A suspension was prepared by adding Hank's balanced salt solution containing 50% Matrigel to the cells so as to be 10.0×10^7 cells/mL. 0.1 mL of the obtained cell suspension was subcutaneously transplanted to the sides of the bodies of five nude mice (CAnN.Cg-Foxn1^nu/CrlCrlj, Charles River Laboratories Japan, Inc.) each of a control group, an E7386 25 mg/kg alone administration group, a lenvatinib mesylate 10 mg/kg alone administration group, and a combined administration group of 25 mg/kg E7386 and 10 mg/kg lenvatinib mesylate. From 6 days after the transplantation, E7386 (25 mg/kg, b.d.s., 10 days, oral administration) and lenvatinib mesylate (10 mg/kg, q.d., 10 days, oral administration) were administered alone or in combination to the alone administration group or the combined administration group. For the administration, E7386 was dissolved in 0.1 mol/L hydrochloric acid, and lenvatinib mesylate was dissolved in 3 mmol/L hydrochloric acid. Any drug was not administered to the control group.
When the start day of administration was defined as day 1, the major axis and minor axis of tumor developed in each mouse were then measured at day 4, day 7, and day 10 by using Digimatic Caliper (Mitutoyo Corp.).
as §1

[4] = Day 6, lenvatinib mesylate 10 mg/kg q.d. oral alone
[5] = Day 9, lenvatinib mesylate 10 mg/kg q.d. oral alone

COc1cc2nccc(Oc3ccc(NC(=O)NC4CC4)c(Cl)c3)c2cc1C(N)=O [Lenvatinib mesylate, 4-(3-chloro-4-(cyclopropylaminocarbonyl)aminophenoxy)-7-methoxy-6-quinolinecarboxamide, reference compound]
Relative tumor volume (RTV), mean±SD ([1]; Day 3, lenvatinib mesylate 10 mg/kg q.d. oral alone): 1.36 ± 0.28
Relative tumor volume (RTV), mean±SD [1, 4]: 1.46 ± 0.28
Relative tumor volume (RTV), mean±SD [1, 5]: 1.75 ± 0.41
Relative tumor volume (RTV), mean±SD ([1]; Day 14, lenvatinib mesylate 10 mg/kg q.d. oral alone): 1.99 ± 0.26
Relative tumor volume (RTV), mean±SD [2, 4]: 3.98 ± 1.00
Relative tumor volume (RTV), mean±SD [2, 5]: 6.48 ± 1.74
Relative tumor volume (RTV), mean±SD ([2]; Day 12, lenvatinib mesylate 10 mg/kg q.d. oral alone): 8.33 ± 2.08
Relative tumor volume (RTV), mean±SD ([2]; Day 15, lenvatinib mesylate 10 mg/kg q.d. oral alone): 9.71 ± 2.30
Relative tumor volume (RTV), mean±SD ([3]; Day 4, lenvatinib mesylate 10 mg/kg q.d. oral alone): 2.01 ± 0.60
Relative tumor volume (RTV), mean±SD ([3]; Day 7, lenvatinib mesylate 10 mg/kg q.d. oral alone): 2.41 ± 0.60
Relative tumor volume (RTV), mean±SD ([3]; Day 10, lenvatinib mesylate 10 mg/kg q.d. oral alone): 2.67 ± 1.23

C=CCN1CC(=O)N2[C@@H](Cc3ccc(O)cc3F)C(=O)N(Cc3cccc(N4CC(N5CCN(CC)CC5)C4)n3)C[C@@H]2N1C(=O)NCc1ccccc1 [E7386, (6S,9aS)—N-Benzyl-8-({6-[3-(4-ethylpiperazin-1-yl)azetidin-1-yl]pyridin-2-yl}methyl)-6-(2-fluoro-4-hydroxybenzyl)-4,7-dioxo-2-(prop-2-en-1-yl)hexahydro-2H-pyrazino[2,1-c][1,2,4]triazine-1(6H)-carboxamide]
Relative tumor volume (RTV), mean±SD ([1]; Day 3, E7386 25 mg/kg b.d.s. oral alone): 1.59 ± 0.38
Relative tumor volume (RTV), mean±SD ([1]; Day 6, E7386 25 mg/kg b.d.s. oral alone): 1.75 ± 0.42
Relative tumor volume (RTV), mean±SD ([1]; Day 9, E7386 25 mg/kg b.d.s. oral alone): 2.17 ± 0.76
Relative tumor volume (RTV), mean±SD ([1]; Day 14, E7386 25 mg/kg b.d.s. oral alone): 2.32 ± 0.68
Relative tumor volume (RTV), mean±SD ([2]; Day 6, E7386 50 mg/kg b.d.s. oral alone): 3.74 ± 0.75
Relative tumor volume (RTV), mean±SD ([2]; Day 9, E7386 50 mg/kg b.d.s. oral alone): 6.31 ± 1.74
Relative tumor volume (RTV), mean±SD ([2]; Day 12, E7386 50 mg/kg b.d.s. oral alone): 7.33 ± 0.89
Relative tumor volume (RTV), mean±SD ([2]; Day 15, E7386 50 mg/kg b.d.s. oral alone): 10.1 ± 1.03
Relative tumor volume (RTV), mean±SD ([3]; Day 4, E7386 25 mg/kg b.d.s. oral alone): 2.34 ± 0.11
Relative tumor volume (RTV), mean±SD ([3]; Day 7, E7386 25 mg/kg b.d.s. oral alone): 3.19 ± 0.38
Relative tumor volume (RTV), mean±SD ([3]; Day 10, E7386 25 mg/kg b.d.s. oral alone): 4.49 ± 0.51
